In patent US8871783B2, “Substituted 2-aza-bicyclo[2.2.1]heptane-3-carboxylic acid (cyano-methyl)-amides inhibitors of cathepsin C” (Boehringer Ingelheim International GmBh, priority 2013, dated 2014) one finds Ki data, which are given here for 24 compounds.

One may read the Ki as the dissociation constant of the complex between target and ligand, obtained from inhibition or displacement.

Chain of recombinant human DPPI (P53634 231-394): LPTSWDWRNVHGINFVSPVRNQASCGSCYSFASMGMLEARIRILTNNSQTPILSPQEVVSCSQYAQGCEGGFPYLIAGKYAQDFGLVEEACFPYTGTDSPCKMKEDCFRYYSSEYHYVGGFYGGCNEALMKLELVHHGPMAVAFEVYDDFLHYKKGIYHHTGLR
Chain of recombinant human DPPI (P53634 395-463): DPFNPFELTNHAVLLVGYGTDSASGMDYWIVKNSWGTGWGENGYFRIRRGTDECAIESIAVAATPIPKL
Chain of recombinant human DPPI (P53634 25-134): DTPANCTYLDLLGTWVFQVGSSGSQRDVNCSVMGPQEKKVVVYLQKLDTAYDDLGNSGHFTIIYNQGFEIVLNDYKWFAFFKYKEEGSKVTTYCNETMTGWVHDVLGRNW

The assay has as its target recombinant human DPPI (Homo sapiens (Human), UniProt P53634). In words: Inhibition of Human DPPI (Cathepsin C). To be noted: substrate Gly-Arg-AMC 50 μM, MES buffer pH 6.0, fluorescence. The format is biochemical. An excerpt:
Inhibition of Human DPPI (Cathepsin C)
Materials: Microtiterplates (Optiplate-384 F) were purchased from PerkinElmer (Prod. No. 6007270). The substrate Gly-Arg-AMC was from Biotrend (Prod.-No. 808756 Custom peptide). Bovine serum albumin (BSA; Prod. No. A3059) and Dithiothreitol (DTT; Prod. No D0632) were from Sigma. TagZyme buffer was from Riedel-de-Haen (Prod.-No. 04269), NaCl was from Merck (Prod.-No. 1.06404.1000) and morpholinoethane sulfonic acid (MES), was from Serva (Prod.-No. 29834). The DPP1 inhibitor Gly-Phe-DMK was purchased from MP Biomedicals (Prod.-No. 03DK00625). The recombinant human DPPI was purchased from Prozymex. All other materials were of highest grade commercially available.
The following buffers were used: MES buffer: 25 mM MES, 50 mM NaCl, 5 mM DTT, adjusted to pH 6.0, containing 0.1% BSA; TAGZyme Buffer: 20 mM NaH2PO4, 150 mM NaCl adjusted to pH 6.0 with HCl
Assay conditions: The recombinant human DPPI was diluted in TAGZyme buffer to 1 U/ml (38.1 μg/ml, respectively), and then activated by mixing in a 1:2 ratio with a Cysteamine aqueous solution (2 mM) and incubating for 5 min at room temperature.
Five uL test compound (final concentration 0.1 nM to 100 μM) in aqua bidest (containing 4% DMSO, final DMSO concentration 1%) were mixed with 10 μL of DPPI in MES buffer (final concentration 0.0125 ng/μL) and incubated for 10 min. Then, 5 μL of substrate in MES buffer (final concentration 50 μM) were added. The microtiter plates were then incubated at room temperature for 30 min. Then, the reaction was stopped by adding 10 μL of Gly-Phe-DMK in MES-buffer (final concentration 1 μM). The fluorescence in the wells was determined using a Molecular Devices SpectraMax M5 Fluorescence Reader (Ex 360 nm, Em 460 nm) or an Envision Fluorescence Reader (Ex 355 nm, Em 460 nm).
Each assay microtiter plate contained wells with vehicle controls (1% DMSO in bidest+0.075% BSA) as reference for non-inhibited enzyme activity (100% Ctl; high values) and wells with inhibitor (Gly-Phe-DMK, in bidest+1% DMSO+0.075% BSA, final concentration 1 μM) as controls for background fluorescence (0% Ctl; low values).
The analysis of the data was performed by calculating the percentage of fluorescence in the presence of test compound in comparison to the fluorescence of the vehicle control after subtracting the background fluorescence using the following formula: (RFU(sample)−RFU(background))*100/(RFU(control)−RFU(background)) […]
On to `CN1C(=O)Cc2ccc(-c3csc(CC(C#N)NC(=O)[C@H]4N[C@@H]5CC[C@H]4C5)c3)cc21` (stereo partly drawn) [Example 15], for which the Ki amounted to 41.9 nM. Consider `CN1C(=O)Cc2ccc(-c3ccc(C[C@@H](C#N)NC(=O)[C@H]4N[C@@H]5CC[C@H]4C5)s3)cc21` [Example 3], for which the Ki amounted to 3.2 nM. Regarding `CN1CCN(S(=O)(=O)c2ccc(-c3ccc(C[C@@H](C#N)NC(=O)[C@H]4N[C@@H]5CC[C@H]4C5)s3)cc2)CC1` [Example 23], the Ki worked out at 2.9 nM.

Consider `CC1(C)OC(=O)c2ccc(-c3ccc(C[C@@H](C#N)NC(=O)[C@H]4N[C@@H]5CC[C@H]4C5)s3)cc21` [Example 25], for which the Ki amounted to 4 nM. In the case of `CN1C(=O)Cc2ccc(-c3ccc4oc(CC(C#N)NC(=O)[C@H]5N[C@@H]6CC[C@H]5C6)cc4c3)cc21` (stereo partly drawn) [Example 8] it was 104 nM.

For the compound `CS(=O)(=O)c1ccc(-c2ccc(C[C@@H](C#N)NC(=O)[C@H]3N[C@@H]4CC[C@H]3C4)s2)cc1` [Example 2], the Ki is 17.3 nM. For `CCn1cc(-c2ccc(C[C@@H](C#N)NC(=O)[C@H]3N[C@@H]4CC[C@H]3C4)s2)cn1` [Example 16] the value was 17.1 nM. For `CN1C(=O)Cc2ccc(-c3cc(F)c(CC(C#N)NC(=O)[C@H]4N[C@@H]5CC[C@H]4C5)s3)cc21` (stereo partly drawn) [Example 22] the value was 2.2 nM; for `N#Cc1ccc(-c2ccc(C[C@@H](C#N)NC(=O)[C@H]3N[C@@H]4CC[C@H]3C4)s2)cc1F` [Example 1], 13.7 nM; for `CN1C(=O)C(=O)c2ccc(-c3ccc(C[C@@H](C#N)NC(=O)[C@H]4N[C@@H]5CC[C@H]4C5)s3)cc21` [Example 4], 2.1 nM. In the case of `N#CC(Cc1cc2cc(-c3ccccc3)ccc2s1)NC(=O)[C@H]1N[C@@H]2CC[C@H]1C2` (stereo partly drawn) [Example 11] it was 72.8 nM; in that of `CN1C(=O)Cc2ccc(-c3csc(CC(C#N)NC(=O)[C@H]4N[C@@H]5CC[C@H]4C5)c3F)cc21` (stereo partly drawn) [Example 13], 61.7 nM. For `CS(=O)(=O)c1cccc(-c2ccc(C[C@@H](C#N)NC(=O)[C@H]3N[C@@H]4CC[C@H]3C4)s2)c1` [Example 26], the Ki was 16.7 nM. For `N#CC(Cc1cc2cc(Br)ccc2s1)NC(=O)[C@H]1N[C@@H]2CC[C@H]1C2` (stereo partly drawn) [Example 10] the value was 35.8 nM; for `N#C[C@H](Cc1ccc(-c2ccc3c(c2)NC(=O)C3)s1)NC(=O)[C@H]1N[C@@H]2CC[C@H]1C2` [Example 17], 4.2 nM; for `CN1CCC(c2ccc(C[C@@H](C#N)NC(=O)[C@H]3N[C@@H]4CC[C@H]3C4)s2)CC1` [Example 20], 37.9 nM. For `N#Cc1ccc(-c2ccc3oc(CC(C#N)NC(=O)[C@H]4N[C@@H]5CC[C@H]4C5)cc3c2)cc1F` (stereo partly drawn) [Example 7] the value was 39.3 nM; for `CN1C(=O)Cc2ccc(-c3cnc(CC(C#N)NC(=O)[C@H]4N[C@@H]5CC[C@H]4C5)s3)cc21` (stereo partly drawn) [Example 12], 14.9 nM. In the case of `N#CC(Cc1cc2cc(-c3ccccc3)ccc2o1)NC(=O)[C@H]1N[C@@H]2CC[C@H]1C2` (stereo partly drawn) [Example 9], the Ki was 62 nM. For `N#CC(Cc1cc2cc(Br)ccc2o1)NC(=O)[C@H]1N[C@@H]2CC[C@H]1C2` (stereo partly drawn) [Example 6] the value was 64.1 nM. In the case of `CN1C(=O)Cc2ccc(-c3ccc(C[C@@H](C#N)NC(=O)[C@H]4N[C@@H]5CC[C@H]4C5)o3)cc21` [Example 5] it was 176 nM; in that of `N#C[C@H](Cc1ccc(-c2cnn(CC3CCOCC3)c2)s1)NC(=O)[C@H]1N[C@@H]2CC[C@H]1C2` [Example 18], 27 nM; in that of `CC1(C)OC(=O)c2cc(-c3ccc(C[C@@H](C#N)NC(=O)[C@H]4N[C@@H]5CC[C@H]4C5)s3)ccc21` [Example 24], 21.9 nM. In the case of `CC(=O)c1ccc(-c2ccc(C[C@@H](C#N)NC(=O)[C@H]3N[C@@H]4CC[C@H]3C4)s2)s1` [Example 14] it was 13.4 nM.
